Calls of active or inactive are those of the source.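 Rule for the calls: active = EC50 under 50 µM in a live-cell viability test; inactive = the rest.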
test system: Molm13 AML cells, XTT viability; assay: growth inhibition of Molm13 leukemia cells, dose response, AHD inhibitor project, cell-based, XTT viability (AID 1794802)

Structure (SMILES)	EC50
NC(=O)c1ccc(-c2ccc3cc(C(=O)NCC4CCNCC4)sc3c2)cc1	> 51 µM (inactive)
O=C(NCC1CCNCC1)c1coc2cc(-c3ccc(N4CCCCC4)cc3)ccc12	13 µM
O=C(NCC1CCNCC1)c1cc2ccc(-c3ccc(N4CCCCC4)cc3)cc2s1	4.7 µM
O=C(NCC1CCNCC1)c1c[nH]c2cc(-c3ccc(N4CCCC4)cc3)ccc12	50 µM
O=C(NCC1CCNCC1)c1c[nH]c2cc(-c3ccc(N4CCCCC4)cc3)ccc12	29 µM
NCc1ccc(-c2ccc3cc(C(=O)NCC4CCNCC4)oc3c2)cc1	> 51 µM (inactive)
O=C(NCC1CCNCC1)c1cc2cc(-c3cn[nH]c3)ccc2[nH]1	> 51 µM (inactive)
O=C(NCC1CCNCC1)c1cc2cc(-c3ccc(N4CCCCC4)cc3)ccc2[nH]1	10 µM
O=C(NCC1CCNCC1)c1cc2ccc(-c3ccc(N4CCCC4)cc3)cc2s1	9.4 µM
O=C(NCC1CCNCC1)c1cc2cc(-c3ccc(N4CCCCC4)cc3)ccc2s1	5.1 µM

From PubChem BioAssay AID1794802 (Yongcheng Song lab at Baylor College of Medicine, 2022)
